Reference: patent US12714754B2, “Delivery of cyclic compound by using carrier” (priority 2018, dated 2026)

Legend:
[1] = system: subcutaneous tumor model mice (B×PC3); experiment: Antitumor effect on tumor-bearing mice; type: in vivo; details: 1.5 mg/kg intraperitoneally
Experimental: A Val-encapsulating polymeric micelle solution prepared by using PEG-P(Asp-BH) (administration amount of Val: 1.5 mg/kg), a valinomycin solution (1.5 mg/kg), or a gemcitabine solution (80 mg/kg) was intravenously administered (only the valinomycin solution was intraperitoneally administered) to the tail vein of subcutaneous tumor model mice (B×PC3) on day 0, day 2, and day 4, and the sizes of the tumors and the body weights of the mice after lapses of various times were measured (n=4).

PANC-1 = experiment: Toxicity test against cultured cells (CCK-8); type: cell-based; details: Homo sapiens, 48 hours, Val concentration, cell survival by CCK-8
Experimental: (§1) Human pancreatic adenocarcinoma cells (B×PC3 cells, Panc-cells, or MiaPaCa cells) were seeded into a 96-well plate (5,000 cells/well). After 24 hours, a Val-encapsulating polymeric micelle solution prepared by adding 0.3 equivalent of Val to PEG-P(Asp-BH) or Val alone was added at various Val concentrations. After 48 hours, the cells were washed with PBS, and a medium was added. After that, Cell Counting Kit-8 (CCK-8, 10 μL/well) was added to the medium, and 30 minutes later, UV absorbance at 450 nm was measured.

BxPC3 = experiment: Toxicity test against cultured cells (CCK-8); type: cell-based; details: Homo sapiens, BXPC-3, 48 hours, Val concentration, cell survival by CCK-8
Experimental: as §1

MiaPaCa = experiment: Toxicity test against cultured cells (CCK-8); type: cell-based; details: Homo sapiens, MIA PaCa-2, 48 hours, Val concentration, cell survival by CCK-8
Experimental: as §1

With CC(C)[C@@H]1NC(=O)[C@H](C)OC(=O)[C@@H](C(C)C)NC(=O)[C@@H](C(C)C)OC(=O)[C@H](C(C)C)NC(=O)[C@H](C)OC(=O)[C@@H](C(C)C)NC(=O)[C@@H](C(C)C)OC(=O)[C@H](C(C)C)NC(=O)[C@H](C)OC(=O)[C@@H](C(C)C)NC(=O)[C@@H](C(C)C)OC1=O [Val, valinomycin] the “death of all the mice, time after the initial administration” value [1] was no more than 24 h, the IC50 (PANC-1) was 8.3 nM and the IC50 (BxPC3) was 12.5 nM. For the same molecule, the IC50 (MiaPaCa) was 23.2 nM.
